Counter-ions that a name gives are not always drawn. Like-named read-outs stand apart in the source and are kept apart here.
Assays:
VACV D9 decapping enzyme = target: T1, VACV D9 decapping enzyme (Vaccinia virus, UniProt P04311); experiment: biochemical; assay type: biochemical
T1 construct: His-tag (C); made in house
Method: Point fluorescence measurements were performed using the BioTek Synergy H1 microplate reader. Before each measurement, the reaction buffer was degassed. Experiments were performed in the Greiner 96-well, black, non-binding plates at 30 °C. Before the measurement, the plate was preincubated for 15 min at 30 °C with mixing (300 rpm). The point fluorescence was registered with 1 min interval and detection at 345 nm excitation wavelength and 378 nm emission wavelength.
Experiments to determine IC50 parameters were performed as point fluorescence measurements. Each well contained an appropriate buffer (10 mM MOPS·HCl, pH 7.0, 100 mM KOAc, containing 2 mM MgCl2, 0.3 mM MnCl2, and 2 mM DTT) with addition of 0.1% BSA, a fluorescent substrate (3 μM of probe 1b), an inhibitor (in half-logarithmic dilution, cinh ∈ 0, 100 μM), and an enzyme (5 nM of D9) to a final volume of 150 μL. To determine the IC50 values, a three parameter dose–response formula with standard hill slope from GraphPad Prism software was fitted [drawing 3] where V/V0 is the relative initial rate of the reaction, Imin and Imax are bottom and top plateaus, and Cinh is the concentration of the inhibitor.

D9 = target: T2, D9 (Vaccinia virus, UniProt P04311); conditions: cited from earlier work
T2 construct: His-tag (C); made in house

[1] = in-house nucleotide library (Table S1, Figure 3), 3 μM probe 1b, 5 nM D9, 30 °C, means of 3 independent experiments ± SEM, read-out: IC50, nucleotide-derived compounds, FLINT HTS assay
[2] = read-out: IC50, nucleotide-derived compounds, FLINT HTS assay, in-house nucleotide library (Table S1, Figure 3), 3 μM probe 1b, 5 nM D9, 30 °C, means of 3 independent experiments ± SEM

Compound	IC50 (VACV D9 decapping enzyme; [1])	other results
Cn1c[n+]([C@@H]2O[C@H](COP(=O)(O)OP(=O)(O)OP(=O)(O)OC[C@H]3O[C@@H](n4cnc5c(N)ncnc54)[C@H](O)[C@@H]3O)[C@@H](O)[C@H]2O)c2nc(N)[nH]c(=O)c21 [m7GpppA]	33 ± 5.9 µM	
Nc1nc2c(cnn2CCc2ccccc2)c2nc(-c3ccco3)nn12 [SCH 58261, reference compound]		IC50 (VACV D9 decapping enzyme): 4.5 ± 0.8 µM
C[n+]1cn([C@@H]2O[C@H](COP([O-])(=S)OP(=O)(O)O)[C@@H](O)[C@H]2O)c2nc(N)[nH]c(=O)c21 (stereo partly drawn) [m7GDPαS D1]	8.3 ± 1.7 µM	
Nc1nc2c(ncn2[C@@H]2O[C@H](COP(=O)(O)OP(=O)(O)OP(=O)(O)O)[C@@H](O)[C@H]2O)c(=O)[nH]1 [GTP, reference compound]	15.4 ± 2.7 µM	
Cn1c[n+]([C@@H]2O[C@H](COP(=O)(O)O)[C@@H](O)[C@H]2O)c2nc(N)[nH]c(=O)c21 [m7GMP]	> 100 µM	
Gpp-triazole-m7G	> 100 µM	
Gppp-SCH2-triazole-m7G	> 100 µM	
C[n+]1cn([C@@H]2O[C@H](COP(=O)([O-])OP(=O)(O)O)[C@@H](O)[C@H]2O)c2nc(N)[nH]c(=O)c21 [m7GDP]		IC50 (VACV D9 decapping enzyme): 14.2 ± 2.4 µM; D9 inhibition (literature) (D9): less potent D9 inhibitors
C[n+]1cn(C2OC(COP(=O)([O-])OP(=O)(O)OP(=O)(O)OP(=O)(O)OP(=O)(O)OCC3OC(n4cnc5c(=O)[nH]c(N)nc54)C(O)C3O)C(O)C2O)c2nc(N)[nH]c(=O)c21 (stereo not drawn) [m7GpppppG]	13.9 ± 2.5 µM	
m7Gpp-SCH2-triazole-G	46 ± 6.8 µM	
Nc1ncnc2c1ncn2[C@@H]1O[C@H](COP(=O)(O)OP(=O)(O)OP(=O)(O)OC[C@@H]2O[C@H](n3cnc4c(N)ncnc43)[C@@H](O)[C@H]2O)[C@@H](O)[C@H]1O [ApppA]	> 100 µM	
Cc1n([C@@H]2O[C@H](COP(=O)(O)OP(=O)(O)O)[C@@H](O)[C@H]2O)c2nc(N)[nH]c(=O)c2[n+]1C [Compound 8Mem7GDP, 8Mem7GDP]	> 100 µM	
C[n+]1cn([C@@H]2O[C@H](COP(O)(=S)OP(=O)(O)O)[C@@H](O)[C@H]2O)c2nc(N)[nH]c(=O)c21 (stereo partly drawn) [m7GDPαS D2]	7.6 ± 1.2 µM	
Gppp-triazole-m7G	35 ± 5.3 µM	
CO[C@@H]1[C@H](O)[C@@H](COP(=O)(O)OP(=O)(O)OP(=O)(O)OC[C@H]2O[C@@H]([n+]3cn(C)c4c(=O)[nH]c(N)nc43)[C@H](O)[C@@H]2O)O[C@H]1n1cnc2c(N)ncnc21 [m7GpppAm]	19.8 ± 3.6 µM	
Nc1nc2c(ncn2[C@@H]2O[C@H](COP(=O)(O)OP(=O)(O)OP(=O)(O)OC[C@H]3O[C@@H](n4cnc5c(=O)[nH]c(N)nc54)[C@H](O)[C@@H]3O)[C@@H](O)[C@H]2O)c(=O)[nH]1 [GpppG]	> 100 µM	
CO[C@@H]1[C@H](OP(=O)(O)OC[C@H]2O[C@@H](n3cnc4c(=O)[nH]c(N)nc43)[C@H](O)[C@@H]2O)[C@@H](COP(=O)(O)CP(=O)(O)OP(=O)([O-])OC[C@H]2O[C@@H](n3c[n+](C)c4c(O)nc(N)nc43)[C@H](O)[C@@H]2O)O[C@H]1n1cnc2c(N)ncnc21 [m7GppCH2pAmpG]	27.4 ± 6.2 µM	
C[n+]1cn(C2OC(COP(=O)([O-])OP(=O)(O)OP(=O)(O)OCC3OC(n4cnc5c(=S)[nH]c(N)nc54)C(O)C3O)C(O)C2O)c2nc(N)[nH]c(=O)c21 (stereo not drawn) [m7Gppp6SG]	14.1 ± 1.7 µM	
C[n+]1cn([C@@H]2O[C@H](COP(=O)(O)CP(=O)(O)OP(=O)(O)OC[C@H]3O[C@@H](n4cnc5c(=O)[nH]c(N)nc54)[C@H](O)[C@@H]3O)[C@@H](O)[C@H]2O)c2nc(N)[nH]c(=O)c21 [m7GpCH2ppG]	16.8 ± 3.3 µM	
m7GNpppG	32.1 ± 5.9 µM	
m7GpppApG	11.3 ± 2 µM	
m7GppCCl2ppm7G	28.8 ± 4.1 µM	
CNc1ncnc2c1ncn2[C@@H]1O[C@H](COP(=O)(O)OP(=O)(O)OP(=O)(O)OC[C@H]2O[C@@H](n3c[n+](C)c4c(=O)[nH]c(N)nc43)[C@H](O)[C@@H]2O)[C@@H](OP(=O)(O)OC[C@H]2O[C@@H](n3cnc4c(=O)[nH]c(N)nc43)[C@H](O)[C@@H]2O)[C@H]1O [m7Gpppm6ApG]	16.9 ± 3.2 µM	

Compound	IC50 (VACV D9 decapping enzyme; [1])	other results
CO[C@H]1[C@@H](O)[C@H]([n+]2cn(C)c3c(=O)[nH]c(N)nc32)O[C@@H]1COP(=O)([O-])OP(=O)(O)OP(=O)(O)OC[C@H]1O[C@@H](n2cnc3c(=O)[nH]c(N)nc32)[C@H](O)[C@@H]1O [m27,3’OGpppG]	10.6 ± 1.1 µM	
m7Gpp-triazole-G	17.5 ± 2.6 µM	
C[n+]1cn(C2OC(COP(=O)([O-])OP(=O)(O)C(F)(F)P(=O)(O)OP(=O)([O-])OCC3OC(n4c[n+](C)c5c(=O)[nH]c(N)nc54)C(O)C3O)C(O)C2O)c2nc(N)[nH]c(=O)c21 (stereo not drawn) [m7GppCF2ppm7G]	14.7 ± 2.6 µM	
m7Gppp-SCH2-triazole-G	24.9 ± 4.8 µM	
m7Gmppp6SG	7.2 ± 1.1 µM	
CO[C@@H]1[C@H](OP(=O)(O)OC[C@H]2O[C@@H](n3cnc4c(=O)[nH]c(N)nc43)[C@H](O)[C@@H]2O)[C@@H](COP(=O)(O)OP(=O)([O-])OP(=O)(O)OC[C@H]2O[C@@H](n3c[n+](C)c4c(=O)[nH]c(N)nc43)[C@H](O)[C@@H]2OC)O[C@H]1n1cnc2c(=O)[nH]c(N)nc21 [m7GmpppGmpG]		IC50 (VACV D9 decapping enzyme; [2]): 3.9 ± 0.5 µM; IC50 (VACV D9 decapping enzyme; read-out: IC50, nucleotide-derived compounds, FLINT HTS assay, in-house nucleotide library (Table S1, Figure 3), 3 μM probe 1b, 5 nM D9, 30 °C, means of 3 independent experiments ± SEM, listed as m^7GmpppGmpG): ~4 µM
Cc1n([C@@H]2O[C@H](COP(=O)(O)OP(=O)(O)OP(=O)(O)O)[C@@H](O)[C@H]2O)c2nc(N)[nH]c(=O)c2[n+]1C [Compound 8Mem7GTP, 8Mem7GTP]	42.9 ± 7.8 µM	
C[n+]1cn(C2OC(COP(=O)(O)OP(=O)([O-])C(Cl)(Cl)P(=O)(O)OP(=O)(O)OCC3OC(n4cnc5c(=O)[nH]c(N)nc54)C(O)C3O)C(O)C2O)c2nc(N)nc(O)c21 (stereo not drawn) [m7GppCCl2ppG]	41.4 ± 6.6 µM	
Nc1nc2c(ncn2[C@@H]2O[C@H](COP(=O)(O)OP(=O)(O)OP(=O)(O)OC[C@H]3O[C@@H](n4cnc5c(N)ncnc54)[C@H](O)[C@@H]3O)[C@@H](O)[C@H]2O)c(=O)[nH]1 [GpppA]	> 100 µM	
CNc1ncnc2c1ncn2[C@@H]1O[C@H](COP(=O)(O)OP(=O)(O)OP(=O)(O)OC[C@H]2O[C@@H](n3c[n+](C)c4c(=O)[nH]c(N)nc43)[C@H](O)[C@@H]2O)[C@@H](O)[C@H]1O [m7Gppp(m6A)]	31.5 ± 5.9 µM	
m7GppCCppG	24.4 ± 4 µM	
Gpp-SCH2-triazole-m7G	> 100 µM	
C[n+]1cn([C@@H]2O[C@H](COP(=O)(O)OP(=O)(O)OP(=O)(O)OC[C@H]3O[C@@H](n4c[n+](C)c5c(=O)[nH]c(N)nc54)[C@H](O)[C@@H]3O)[C@@H](O)[C@H]2O)c2nc(N)[nH]c(=O)c21 [m7Gpppm7G]	14.3 ± 2.1 µM	
CO[C@@H]1[C@H](OP(=O)(O)OC[C@H]2O[C@@H](n3cnc4c(=O)[nH]c(N)nc43)[C@H](O)[C@@H]2O)[C@@H](COP(=O)(O)OP(=O)(O)OP(=O)([O-])OC[C@H]2O[C@@H]([n+]3cn(C)c4c(=O)[nH]c(N)nc43)[C@H](O)[C@@H]2O)O[C@H]1n1cnc2c(=O)[nH]c(N)nc21 [m7GpppGmpG]	12 ± 2.4 µM	
C[n+]1cn([C@@H]2O[C@H](COP(O)(=S)OP(=O)(O)OP(=O)(O)O)[C@@H](O)[C@H]2O)c2nc(N)[nH]c(=O)c21 (stereo partly drawn) [m7GTPαS]	0.64 ± 0.06 µM	
C[n+]1cn([C@@H]2O[C@H](COP(=O)([O-])OP(=O)(O)CP(=O)(O)O)[C@@H](O)[C@H]2O)c2nc(N)nc(O)c21 [m7GppCH2p]	1.1 ± 0.1 µM	
Nc1nc2ccc(Cl)cc2c2nc(-c3ccco3)nn12 [CGS-15943, reference compound]		IC50 (VACV D9 decapping enzyme): 20.1 ± 5.2 µM
C[n+]1cn([C@@H]2O[C@H](COP(=O)(O)CP(=O)([O-])OP(=O)(O)O)[C@@H](O)[C@H]2O)c2nc(N)nc(O)c21 [m7GpCH2pp]		IC50 (VACV D9 decapping enzyme; [2]): 0.58 ± 0.06 µM
m7Gppp m6AmpG	17.4 ± 3 µM	
Nc1ncnc2c1ncn2[C@@H]1O[C@H](COP(O)(=S)OP(=O)(O)OP(O)(=S)OC[C@H]2O[C@@H](n3cnc4c(N)ncnc43)[C@H](O)[C@@H]2O)[C@@H](O)[C@H]1O (stereo partly drawn) [ApSppSA]	> 100 µM	
CO[C@@H]1[C@H](OP(=O)(O)OC[C@H]2O[C@@H](n3cnc4c(=O)[nH]c(N)nc43)[C@H](O)[C@@H]2O)[C@@H](COP(=O)(O)OP(=O)(O)OP(=O)([O-])OC[C@H]2O[C@@H]([n+]3cn(C)c4c(=O)[nH]c(N)nc43)[C@H](O)[C@@H]2O)O[C@H]1n1cnc2c(N)ncnc21 [m7GpppAmpG]	20.4 ± 3.4 µM	
C[n+]1cn(C2OC(COP(=O)(O)OP(=O)([O-])C(F)(F)P(=O)(O)OP(=O)(O)OCC3OC(n4cnc5c(=O)[nH]c(N)nc54)C(O)C3O)C(O)C2O)c2nc(N)nc(O)c21 (stereo not drawn) [m7GppCF2ppG]	16.7 ± 3.1 µM	
COc1cc(NS(C)(=O)=O)ccc1Nc1c2ccccc2nc2ccccc12 [amsacrine hydrochloride, reference compound]		IC50 (VACV D9 decapping enzyme): 12.6 ± 1.7 µM

Source: paper PMC9207806 (ACS Chemical Biology, 2022)
